In brackets after ≈: the same amount, converted by molar mass.
How the values were obtained:
A549 = experiment: Compound was tested for cytotoxic activity against human lung carcinoma (A-549); type: functional; conditions: for EC50: Homo sapiens, A549, read-out: ED50 (the source's name)
HT-29 = experiment: Compound was tested for cytotoxic activity against human colon adenocarcinoma (HT-29); type: functional; conditions: for EC50: Homo sapiens, HT-29, read-out: ED50 (the source's name)
MCF7 = experiment: Compound was tested for cytotoxic activity against human breast carcinoma (MCF-7); type: functional; conditions: for EC50: Homo sapiens, MCF7, read-out: ED50 (the source's name)
Artemia = experiment: (§1) Compound was tested for lethal concentration in Brine shrimp lethality test (BST); type: organism-based; conditions: in vivo
[1] = as §1; type: organism-based; conditions: artemia, in vivo

Compound	ED50 (A549)	ED50 (HT-29)	ED50 (MCF7)	LC50 (Artemia)	EC50 (A549)	EC50 (HT-29)	EC50 (MCF7)	LC50 [1]
CCCCCCCCCCC(O)C(O)CCC(O)C1CCC(C2CCC(CCCCCCCC3CC(CC(C)=O)C(=O)O3)O2)O1 (trans isomer)	0.0337 ng/mL (≈ 0.0527 nM)	229 ng/mL (≈ 358 nM)	1.07 ng/mL (≈ 1.67 nM)	137 ng/mL (≈ 214 nM)	–	–	–	–
COc1cccc2c1C(=O)c1c(O)c3c(c(O)c1C2=O)C[C@@](O)(C(=O)CO)C[C@@H]3O[C@H]1C[C@H](N)[C@H](O)[C@H](C)O1 [DOXORUBICIN]	–	–	–	80 ng/mL (≈ 147 nM)	0.153 ng/mL (≈ 0.281 nM)	0.558 ng/mL (≈ 1.03 nM)	13.8 ng/mL (≈ 25.4 nM)	–
CCCCCCCCCCC(O)C(O)CCC(O)C1CCC(C2CCC(CCCCCCCC3CC(CC(C)=O)C(=O)O3)O2)O1 (stereo in doubt)	–	–	–	–	0.0337 ng/mL (≈ 0.0527 nM)	229 ng/mL (≈ 358 nM)	1.07 ng/mL (≈ 1.67 nM)	137 ng/mL (≈ 214 nM)
